Measured values: US6391309B1, “Method of preparing and using isoflavones for the treatment of female symptoms” (Archer Daniesl Midland Company, priority 1996, dated 2002)

Tests used:
[1] = Solubility of isoflavones in distilled water at 37° C., HPLC after filtration; assay type: physicochemical; conditions: 0.02% in distilled water, 17 hours, 0.2 micron filter
Experimental: Separate solutions (0.02% in distilled water) were made for genistein, genistin, daidzein, daidzin and isoflavone concentrate in volumetric flasks. Samples were then placed in a 37° C. water bath for 17 hours, followed by rapid filtration through a 0.2 micron syringe-type filter to remove particulates. Filtered samples were then analyzed for isoflavone concentration by HPLC.

LNCaP cells = experiment: In vitro secretion of PSA by LNCaP cells into media; assay type: cell-based
Experimental: PSA concentrations were reduced 68% and 74% by 25 and 50 μM of genistein treatment respectively, and 31% and 42% by 25 and 50 μM of soy phytochemical concentrate treatment respectively.

Genistein concentration in solution (solubility) [1] [ppm]	Structure (SMILES)	Daidzin concentration in solution (solubility) [1] [ppm]	PSA concentration reduced (LNCaP cells; 25 μM) [%]	PSA concentration reduced (LNCaP cells; 50 μM) [%]
	O=c1c(-c2ccc(O)cc2)coc2cc(O[C@@H]3O[C@H](CO)[C@@H](O)[C@H](O)[C@H]3O)ccc12 [daidzin]	48.51		
7.42	O=c1c(-c2ccc(O)cc2)coc2cc(O)cc(O)c12 [genistein]		68	74
